Assay results from patent US20060063759A1, “Tricyclic steroid hormone nuclear receptor modulators” (priority 2002, published 2006).

Columns and labels:
human MR = target: T1, human MR (Homo sapiens, UniProt P08235); assay: Mineralocorticoid Receptor Binding Assay ([3H]-aldosterone); conditions: [3H]-aldosterone binding, human MR expressed in Sf9 cells; read-out: MR Ki
T1 construct: The full length human MR gene is cloned from a human kidney or human brain cDNA library; His tag from the pAcHLT vector (own knowledge); made in house; host or cells: Sf9 insect cells (baculovirus, pAcHLT transfer vector)
T1 sequence (P08235 1-984): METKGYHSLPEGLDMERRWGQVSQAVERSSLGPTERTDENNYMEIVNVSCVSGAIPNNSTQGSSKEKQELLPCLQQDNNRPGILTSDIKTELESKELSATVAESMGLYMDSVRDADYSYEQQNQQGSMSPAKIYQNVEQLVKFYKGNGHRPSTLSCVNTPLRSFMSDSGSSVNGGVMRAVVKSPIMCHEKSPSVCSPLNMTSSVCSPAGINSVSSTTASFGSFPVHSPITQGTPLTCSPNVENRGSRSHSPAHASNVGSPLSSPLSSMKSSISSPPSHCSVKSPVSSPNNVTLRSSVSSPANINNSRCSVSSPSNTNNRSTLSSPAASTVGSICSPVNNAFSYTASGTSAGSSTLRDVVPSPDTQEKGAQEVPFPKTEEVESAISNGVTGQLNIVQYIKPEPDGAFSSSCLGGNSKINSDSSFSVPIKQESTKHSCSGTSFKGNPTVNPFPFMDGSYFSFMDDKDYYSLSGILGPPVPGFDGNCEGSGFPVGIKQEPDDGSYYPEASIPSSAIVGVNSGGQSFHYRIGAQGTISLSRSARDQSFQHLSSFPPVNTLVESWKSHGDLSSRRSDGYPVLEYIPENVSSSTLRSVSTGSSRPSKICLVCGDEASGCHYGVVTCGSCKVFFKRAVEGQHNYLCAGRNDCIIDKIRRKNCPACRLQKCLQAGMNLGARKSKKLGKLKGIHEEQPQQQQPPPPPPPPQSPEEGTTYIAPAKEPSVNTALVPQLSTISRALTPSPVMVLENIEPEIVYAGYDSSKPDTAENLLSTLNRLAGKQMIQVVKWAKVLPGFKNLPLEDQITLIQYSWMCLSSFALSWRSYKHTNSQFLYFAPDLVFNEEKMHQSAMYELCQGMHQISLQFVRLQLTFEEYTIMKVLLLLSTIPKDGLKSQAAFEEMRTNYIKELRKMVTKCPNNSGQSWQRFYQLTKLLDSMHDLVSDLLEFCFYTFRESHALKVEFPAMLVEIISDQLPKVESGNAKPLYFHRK
How it was run: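 Receptor source: freeze-thaw lysate of baculovirus-infected Sf9 cells carrying full-length human MR, 20-25 μg protein. Incubation ~16 h at 4 °C with shaking, pH 7.5 buffer containing 30 mM sodium molybdate and 10% glycerol.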

glucocorticoid receptor = target: T2, glucocorticoid receptor (Homo sapiens, UniProt P04150); assay: Glucocorticoid Receptor Binding Assay ([3H]-dexamethasone, A549 cell extract); conditions: [3H]-dexamethasone binding, read-out: GR Ki
T2 construct: containing 50-200 ug of A549 cell extract and 1.86 nM [^3H]-dexamethasone; host or cells: A549 human lung epithelial cells (sonicated cell extract)
T2 sequence (P04150 1-777): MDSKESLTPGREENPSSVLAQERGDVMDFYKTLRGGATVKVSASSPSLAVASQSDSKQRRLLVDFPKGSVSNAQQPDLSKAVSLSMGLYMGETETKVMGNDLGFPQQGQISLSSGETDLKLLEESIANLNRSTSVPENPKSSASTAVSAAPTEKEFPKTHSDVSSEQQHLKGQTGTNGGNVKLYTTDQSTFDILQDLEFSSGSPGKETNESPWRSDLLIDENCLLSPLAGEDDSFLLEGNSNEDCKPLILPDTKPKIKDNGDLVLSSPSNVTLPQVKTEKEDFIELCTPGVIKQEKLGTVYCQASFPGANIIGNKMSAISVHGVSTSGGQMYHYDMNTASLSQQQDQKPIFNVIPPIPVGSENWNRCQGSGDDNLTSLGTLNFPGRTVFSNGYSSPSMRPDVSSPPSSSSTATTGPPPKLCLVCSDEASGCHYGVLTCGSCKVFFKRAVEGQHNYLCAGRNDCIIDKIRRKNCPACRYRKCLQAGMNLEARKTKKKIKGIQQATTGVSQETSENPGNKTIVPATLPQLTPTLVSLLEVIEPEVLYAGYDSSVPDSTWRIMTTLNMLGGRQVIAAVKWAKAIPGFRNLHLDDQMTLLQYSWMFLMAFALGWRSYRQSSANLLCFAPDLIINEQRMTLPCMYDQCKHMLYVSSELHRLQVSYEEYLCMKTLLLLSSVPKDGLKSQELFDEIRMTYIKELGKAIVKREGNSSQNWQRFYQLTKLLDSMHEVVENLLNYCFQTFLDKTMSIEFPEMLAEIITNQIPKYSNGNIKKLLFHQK
How it was run: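 Displacement of [3H]-dexamethasone (1.86 nM) from glucocorticoid receptor in sonicated A549 lung epithelial cell extracts, 16 h at 4 °C, pH 7.2 molybdate-containing buffer. Bound radioactivity was scintillation-counted after charcoal/dextran stripping of free ligand.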

[1] = in combination with standard CHF therapy, patients suffering from advanced CHF; cited from earlier work

## CC(C)S(=O)(=O)Nc1cccc(C=C2c3ccccc3CCc3ccccc32)c1 [Example 92, Propane-2-sulfonic acid [3-(10,11-dihydro-dibenzo[a,d]cyclohepten-5-ylidenemethyl)-phenyl]-amide]
Human MR
  Ki: < 500 nM
Glucocorticoid receptor
  Ki: < 500 nM
other
  melting point: 187.7 °C

## O=S(=O)(Nc1cccc(C=C2c3ccccc3CCc3ccccc32)c1)c1ccccc1 [Example 93, N-[3-(10,11-Dihydrodibenzo[a,d]cyclohepten-5-ylidenemethyl)-phenyl]-benzenesulfonamide]
Human MR
  Ki: < 500 nM
Glucocorticoid receptor
  Ki: < 500 nM
other
  melting point: 121.9 °C

## Cc1noc(C)c1S(=O)(=O)Nc1cccc(C=C2c3ccccc3CCc3ccccc32)c1 [Example 94, 3,5-Dimethyl-isoxazole-4-sulfonic acid [3-(10,11-dihydro-dibenzo[a,d]cyclohepten-5-ylidenemethyl)-phenyl]-amide]
Human MR
  Ki: < 500 nM
Glucocorticoid receptor
  Ki: < 500 nM
other
  melting point: 149.3 °C

## Cn1cnc(S(=O)(=O)Nc2cccc(C=C3c4ccccc4CCc4ccccc43)c2)c1 [Example 95, 1-Methyl-1H-imidazole-4-sulfonic acid [3-(10,11-dihydro-dibenzo[a,d]cyclohepten-5-ylidenemethyl)-phenyl]-amide]
Human MR
  Ki: < 500 nM
Glucocorticoid receptor
  Ki: < 1000 nM
other
  melting point: 257 °C

## CS(=O)(=O)Nc1ccc(C=C2c3ccccc3CCc3ccccc32)cc1 [Example 99, N-[4-(10,11-Dihydro-dibenzo[a,d]cyclohepten-5-ylidenemethyl)-phenyl]-methanesulfonamide]
Human MR
  Ki: < 500 nM
Glucocorticoid receptor
  Ki: < 1000 nM
other
  melting point: 210.7 °C

## CC(=O)Nc1ccc(C=C2c3ccccc3CCc3ccccc32)cc1 [Example 116, N-[4-(10,11-Dihydro-dibenzo[a,d]cyclohepten-5-ylidenemethyl)-phenyl]-acetamide]
Human MR
  Ki: < 500 nM
Glucocorticoid receptor
  Ki: < 500 nM
other
  melting point: 134.8 °C

## O=C(Nc1ccc(C=C2c3ccccc3CCc3ccccc32)cc1)c1ccncc1 [Example 117, N-[4-(10,11-Dihydro-dibenzo[a,d]cyclohepten-5-ylidenemethyl)-phenyl]-isonicotinamide]
Human MR
  Ki: < 500 nM
Glucocorticoid receptor
  Ki: < 500 nM
other
  melting point: 252.1 °C

## Oc1cccc(CC2c3ccccc3CCc3ccccc32)c1 [Example 126, 3-(10,11-Dihydro-5H-dibenzo[a,d]cyclohepten-5-ylmethyl)-phenol]
Human MR
  Ki: < 500 nM
Glucocorticoid receptor
  Ki: < 500 nM
other
  melting point: 76.6 °C

## Oc1cccc(C=C2c3ccccc3CCc3ccccc32)c1F [Example 153, 3-(10,11-Dihydro-dibenzo[a,d]cyclohepten-5-ylidenemethyl)-2-fluoro-phenol]
Human MR
  Ki: < 500 nM
Glucocorticoid receptor
  Ki: < 1000 nM
other
  melting point: 143.2 °C

## CS(=O)(=O)Nc1cccc(C=C2c3ccc(Cl)cc3CCc3cc(Cl)ccc32)c1 [Example 182, N-[3-(2,8-Dichloro-10,11-dihydro-dibenzo[a,d]cyclohepten-5-ylidenemethyl)-phenyl]-methanesulfonamide]
Human MR
  Ki: < 500 nM
Glucocorticoid receptor
  Ki: < 500 nM
other
  melting point: 182.4 °C

## COc1ccc2c(c1)CCc1cc(OC)ccc1C2=Cc1cccc(NS(C)(=O)=O)c1 [Example 191, N-[3-(2,8-Dimethoxy-10,11-dihydro-dibenzo[a,d]cyclohepten-5-ylidenemethyl)-phenyl]-methanesulfonamide]
Human MR
  Ki: < 500 nM
Glucocorticoid receptor
  Ki: < 500 nM
other
  melting point: 109.6 °C

## Oc1cccc(C=C2c3cccc(F)c3CCc3c(F)cccc32)c1 [Example 202, 3-(1,9-Difluoro-10,11-dihydro-dibenzo[a,d]cyclohepten-5-ylidenemethyl)-phenol]
Human MR
  Ki: < 500 nM
Glucocorticoid receptor
  Ki: < 1000 nM
other
  melting point: 129.5 °C

## Oc1cccc(/C=C2/c3ccc(Cl)cc3CCc3cccnc32)c1 [Example 244, 3-(8-Chloro-5,6-dihydro-benzo[5,6]cyclohepta[1,2-b]pyridin-11-ylidenemethyl)-phenol]
Human MR
  Ki: < 500 nM
Glucocorticoid receptor
  Ki: < 10000 nM
other
  melting point: 221.2 °C

## Oc1cccc(/C=C2\c3ccc(Cl)cc3CCc3cccnc32)c1 [Example 245, 3-(8-Chloro-5,6-dihydro-benzo[5,6]cyclohepta[1,2-b]pyridin-11-ylidenemethyl)-phenol]
Human MR
  Ki: < 500 nM
Glucocorticoid receptor
  Ki: < 10000 nM
other
  melting point: > 250 °C

## CS(=O)(=O)Nc1cccc(C=C2c3ccccc3C3C(c4ccccc42)C3(Cl)Cl)c1 (centres unmarked) [Example 259, N-[3-(8,8-Dichloro-4-ylidenemethyl-2,3,5,6-dibenzobicyclo[5.1.0]octane)-phenyl]-methanesulfonamide]
Human MR
  Ki: < 500 nM
Glucocorticoid receptor
  Ki: < 10000 nM
other
  melting point: 199 to 201 °C

## O=c1[nH]c2ccc(C=C3c4ccc(F)cc4CCc4cc(F)ccc43)cc2[nH]1 [Example 437, 5-(2,8-difluoro-10,11-dihydro-dibenzo[a,d]cyclohepten-5-ylidenemethyl)-1,3-dihydro-benzoimidazol-2-one]
Human MR
  Ki: < 500 nM
Glucocorticoid receptor
  Ki: < 1000 nM
other
  melting point: 257 °C

## CC(=O)S[C@@H]1CC2=CC(=O)CC[C@]2(C)[C@H]2CC[C@@]3(C)[C@@H](CC[C@@]34CCC(=O)O4)[C@H]12 [spironolactone]
[1]
  reduced cardiac related mortality: 30%
  reduced frequency of hospitalization: 35%
